Structures can show the parent of a compound that is named as a salt.
Assays:
human LSD1 = human LSD1 (Homo sapiens, UniProt O60341); experiment: In vitro enzyme activity screening against LSD1 (HRP/Amplex Red fluorescence coupling enzyme method); assay type: biochemical; conditions: human LSD1, histone H3K4me peptide substrate 20 μM
Description: The purpose of this test was to detect the in vitro inhibitory activity of the compounds against LSD1. The enzyme used in this test was human LSD1, the standard substrate was histone H3K4me peptide (20 μM), the fluorescence coupling enzyme method was used to determine the activity of the compound by combining horseradish peroxidase (HRP) and fluorescent reagent Amplex Red to detect the H2O2 generation as a result of the reaction of LSD1. Compounds were tested in 10-dose IC50 mode with a 3-fold serial dilution starting at 10 μM. The enzyme and […] to start the reaction. Fluorescence detector: Envision, excitation wavelength: Ex/Em=530/590 […]

[1] = In vivo pharmacokinetics in CD-1 mice; conditions: male, CD-1, mouse, plasma, male CD-1 mice; for half-life / clearance / Vd: iv, 1 mg/kg; for half-life: IV 1 mg/kg, read-out: Half-life T1/2 (IV) (converted); for clearance / Vd / Cmax: study doses 1 mg/kg intravenous, 2 mg/kg oral; for clearance: read-out: Clearance CL; for Vd: read-out: Volumes of distribution Vdss; for Cmax: route not given, read-out: Max concentration Cmax; for AUC(0-t) / bioavailability: po, 2 mg/kg; for AUC(0-t): PO 2 mg/kg, read-out: The area under the plasma concentration-time curve AUC0-last PO; for bioavailability: oral 2 mg/kg vs intravenous 1 mg/kg, read-out: Bioavailability F
Description: CD-1 mice (male, 7-9 weeks old, Shanghai Slac)
The rodent pharmacokinetic characteristics after intravenous injection and oral administration of the compounds were tested by standard protocols, in the experiment, the candidate compounds were formulated into clear solutions and administrated to mice via a single intravenous injection and oral administration. The vehicle for intravenous injection and oral administration was a mixed solution of 10% of dimethyl sulfoxide and 90% of 10% hydroxypropyl β cyclodextrin. This project used four male CD-1 mice, two mice were administered intravenously, with a dose of 1 mg/kg, and plasma samples were collected at 0 hour (before administration) and 0.0833, 0.25, 0.5, 1, 2, 4, 8, 24 hours after administration. The other two mice were orally administered by gavage, with a dose of 2 mg/kg, plasma samples were collected at 0 hour (before administration) and 0.25, 0.5, 1, 2, 4, 8, 24 hours after administration, whole blood samples were collected within 24 hours, which were centrifuged at 3000 g for 15 minutes, and the supernatants were separated to obtain plasma samples, 4 times volume of acetonitrile solutions containing internal standard were added to precipitate the protein, the mixtures were centrifuged to obtain the supernatants, the supernatants were added with water of equal volume and centrifuged again to take the supernatant for injection, and the blood drug concentration was quantitatively analyzed by the LC-MS/MS analysis method, and pharmacokinetic parameters were calculated, such as max concentration (Cmax), clearance (CL), half-life (T1/2), volumes of distribution (Vdss), the area under the plasma concentration-time curve (AUC0-last), bioavailability (F) etc.

MV-4-11 cells = experiment: Antiproliferation activity on MV-4-11 cells (CellTiter-Glo, 6 days); assay type: cell-based; conditions: Homo sapiens, MV4-11, 144 h, incubated for 6 days
Excerpt: Experimental purpose: to detect the antiproliferation activity of the compound to be tested on MV-4-11 cells.
(§1) Experimental materials: IMDM culture medium, fetal bovine serum, penicillin/streptomycin antibiotics purchased from Wisent. CellTiter-Glo (chemiluminescent cell viability assay reagent) reagents purchased from Promega. MV-4-11 cell line was purchased from Nanjing Cobioer Co., Ltd. Nivo Multi-Marker Analyzer (PerkinElmer).
Experimental method: MV-4-11 cells were planted in a white 96-well plate, 80 μL of cell suspension per well, which contained 6000 MV-4-11 cells. The cell plate was placed in a carbon dioxide incubator for overnight culture.
The compounds to be tested were diluted 5-fold with a pipet until the 8th concentration, i.e., diluted from 2 mM to 25.6 nM, double duplicate well experiment was set. 78 μL of the culture medium was added to an intermediate plate, and then 2 μL per well of the serially diluted compounds were transferred to the corresponding positions on the intermediate plate, after mixing, 20 μL per well was transferred to the cell plate. The cell plate was incubated in a carbon dioxide incubator for 6 days. Another cell plate was prepared and the signal value on the day of dosing was read as the maximum value (Max value in the equation below) to participate in the data analysis. 25 μL of the chemiluminescent cell viability assay reagent was added to each well of this cell plate, which was incubated at room temperature for 10 minutes to stabilize the luminescence signal. The multi-label analyzer was used for reading.
(§2) Data analysis: the equation (Sample-Min)/(Max-Min)*100% was used to convert the original data into the inhibition rate, the IC50 value can be obtained by curve fitting of four-parameters (“log(inhibitor) vs. response—Variable slope” mode in GraphPad Prism)).

HL60 cells = experiment: Antiproliferation activity on HL60 cells (CellTiter-Glo, 6 days); assay type: cell-based; conditions: Homo sapiens, HL-60, 144 h, incubated for 6 days
Excerpt: Experimental purpose: to detect the antiproliferation activity of the compound to be tested on HL60 cells.
as §1, with “RPMI-1640” for “IMDM”, “HL60” for “MV-4-11”, “line” for “line was”, “multi-label reader” for “Multi-Marker Analyzer”
Experimental method: HL60 cells were planted in a white 384-well plate, 40 μL of cell suspension per well, 600 HL60 cells were contained therein. The cell plate was placed in a carbon dioxide incubator for overnight culture. The compounds to be tested were diluted 5-fold with a pipet until the 10th concentration, i.e., diluted from 2 mM to 1.024 nM, double duplicate well experiment was set. 78 μL of the culture medium was added to an intermediate plate, and then 2 μL per well of the serially diluted compounds were transferred to the corresponding positions on the intermediate plate, after mixing, 10 μL per well was transferred to the cell plate. The cell plate was incubated in a carbon dioxide incubator for 6 days. Another cell plate was prepared and the signal value on the day of dosing was read as the maximum value (Max value in the equation below) to participate in the data analysis. 20 μL of chemiluminescent cell viability assay reagent was added to each well of this cell plate, which was incubated at room temperature for 10 minutes to stabilize the luminescence signal. The multi-label reader was used for reading.
as §2

NCI-H1417 cells = experiment: Antiproliferation activity on NCI-H1417 cells (CellTiter-Glo, 10 days); assay type: cell-based, human; conditions: Homo sapiens, NCI-H1417, 240 h, incubated for 10 days
Description: Experimental purpose: to detect the antiproliferation activity of the compounds on NCI-H1417 cells.
Experimental materials: RPMI 1640 culture medium, fetal bovine serum, Promega CellTiter-Glo reagent. NCI-H1417 cell line purchased from ATCC. Envision multi-label reader (PerkinElmer).
Experimental method: the compounds were dissolved to 10 mM, then the compounds were diluted 5 times with DMSO in a compound plate, the compounds were diluted 3-fold with Bravo from a starting concentration of 2 mM to the 10th concentration, 250 nL of the solutions were transferred to the upper and lower duplicate wells on a blank 384 cell plate by Echo transfer plate, cell suspension of per well/1000 cells/50 μL was added to the transferred 250 nL DMSO/compound, the compounds were diluted 200-fold, i.e., the initial action concentration was 10 μM. The cell plate was placed in a carbon dioxide incubator and incubated for 10 days. 25 μL of Promega CellTiter-Glo reagent was added to each well on the cell plate and was shaken at room temperature for 10 minutes to stabilize the luminescence signal. Readings were performed by PerkinElmer Envision multi-label analyzer.
Data analysis: the equation (Max-Ratio)/(Max-Min)*100% was used to convert the original data into the inhibition rate, the value of IC50 can be obtained by curve fitting of four-parameters (the 205 mode in XLFITS, iDBS).

IC50 (human LSD1) | Structure (SMILES) | other results
1690 nM | O=C(O)c1ccc(NC(=O)N2CCC3(CC2)CC(N[C@@H]2C[C@H]2c2ccccc2)CO3)cc1 (stereo partly shown) [Hydrochloride of the compound 1] | 
1580 nM | O=C(O)c1ccc(CN2CC3(CC(N[C@@H]4C[C@H]4c4ccccc4)CO3)C2)cc1 (stereo partly shown) [Hydrochloride of the compound 2] | 
96.7 nM | O=C(O)c1cccc(CN2CCC3(CC2)CC(N[C@@H]2C[C@H]2c2ccccc2)CO3)c1 (stereo partly shown) [Hydrochloride of the compound 3] | 
940 nM | O=C(O)c1ccc(CN2CC3(CC(N[C@@H]4C[C@H]4c4ccccc4)CCO3)C2)cc1 (stereo partly shown) [Hydrochloride of the compound 4] | 
3850 nM | O=C(O)c1ccc(CN2CCC3(CC2)OCC3N[C@@H]2C[C@H]2c2ccccc2)cc1 (stereo partly shown) [Hydrochloride of the compound 5] | 
45.1 nM | O=C(O)c1ccccc1CN1CCC2(CC1)CC(N[C@@H]1C[C@H]1c1ccccc1)CO2 (stereo partly shown) [Hydrochloride of the compound 7] | 
39.7 nM | COc1ccc(CN2CCC3(CC2)CC(N[C@@H]2C[C@H]2c2ccccc2)CO3)cc1 (stereo partly shown) [Hydrochloride of the compound 8] | 
37.8 nM | Fc1ccc(CN2CCC3(CC2)CC(N[C@@H]2C[C@H]2c2ccccc2)CO3)cc1 (stereo partly shown) [Hydrochloride of the compound 9] | 
78.4 nM | FC(F)(F)c1ccc(CN2CCC3(CC2)CC(N[C@@H]2C[C@H]2c2ccccc2)CO3)cc1 (stereo partly shown) [Hydrochloride of the compound 10] | 
2880 nM | O=C(O)c1ccc(N2CCC3(CC2)CC(N[C@@H]2C[C@H]2c2ccccc2)CO3)cc1 (stereo partly shown) [Hydrochloride of the compound 11] | 
1380 nM | O=C(O)Cc1ccc(N2CCC3(CC2)CC(N[C@@H]2C[C@H]2c2ccccc2)CO3)cc1 (stereo partly shown) [Hydrochloride of the compound 12] | 
46.6 nM | Clc1ccc(CN2CCC3(CC2)CC(N[C@@H]2C[C@H]2c2ccccc2)CO3)cc1 (stereo partly shown) [Hydrochloride of the compound 13] | 
118 nM | O=C(O)c1ccc(CN2CCC3(CC2)CC(N[C@@H]2C[C@H]2c2ccccc2)CO3)nc1 (stereo partly shown) [Hydrochloride of the compound 14] | half-life [1]: 0.874 h; clearance [1]: 16.9 mL/min/kg; Vd [1]: 0.551 L/kg; Cmax [1]: 629 nM; AUC(0-t) [1]: 1.38 µM·h; bioavailability [1]: 28.7%
70.6 nM | O=C(O)c1ccc2cc(CN3CCC4(CC3)CC(N[C@@H]3C[C@H]3c3ccccc3)CO4)ccc2c1 (stereo partly shown) [Hydrochloride of the compound 17] | IC50 (MV-4-11 cells): 2.86 nM; IC50 (HL60 cells): 0.78 nM; IC50 (NCI-H1417 cells): 0.65 nM
92.9 nM | O=C(O)c1cnc(CN2CCC3(CC2)CC(N[C@@H]2C[C@H]2c2ccccc2)CO3)cn1 (stereo partly shown) [Hydrochloride of the compound 18] | IC50 (MV-4-11 cells): 16 nM; IC50 (HL60 cells): 20.4 nM
208 nM | O=C(O)c1ccc(CCN2CCC3(CC2)CC(N[C@@H]2C[C@H]2c2ccccc2)CO3)cc1 (stereo partly shown) [Hydrochloride of the compound 19] | IC50 (MV-4-11 cells): 4.41 nM; IC50 (HL60 cells): 1.46 nM; IC50 (NCI-H1417 cells): 6.95 nM
908 nM | O=C(O)c1ccc(C(=O)N2CCC3(CC2)CC(N[C@@H]2C[C@H]2c2ccccc2)CO3)cc1 (stereo partly shown) [Hydrochloride of the compound 22] | 
64.6 nM | NC(=O)c1ccc(CN2CCC3(CC2)CC(N[C@@H]2C[C@H]2c2ccccc2)CO3)cc1 (stereo partly shown) [Hydrochloride of the compound 23] | half-life [1]: 4.32 h; clearance [1]: 68.7 mL/min/kg; Vd [1]: 18.6 L/kg; Cmax [1]: 144 nM; AUC(0-t) [1]: 0.36 µM·h; bioavailability [1]: 37.2%; IC50 (NCI-H1417 cells): 1.68 nM
41.5 nM | c1ccc([C@@H]2C[C@H]2NC2COC3(CCN(Cc4ccc(-c5nn[nH]n5)cc4)CC3)C2)cc1 (stereo partly shown) [Hydrochloride of the compound 24] | IC50 (MV-4-11 cells): 38.3 nM; IC50 (HL60 cells): 39.1 nM
271 nM | O=C(O)c1ccc(CN2CCC3(CC2)CC(N[C@@H]2C[C@H]2c2ccccc2)CCO3)cc1 (stereo partly shown) [Hydrochloride of the compound 26] | 
1780 nM | O=C(O)[C@H]1CC[C@H](CN2CCC3(CC2)CC(N[C@@H]2C[C@H]2c2ccccc2)CO3)CC1 (stereo partly shown) [Hydrochloride of the compound 27] | 
1460 nM | O=C(O)C12CCC(CN3CCC4(CC3)CC(N[C@@H]3C[C@H]3c3ccccc3)CO4)(CC1)CC2 (stereo partly shown) [Hydrochloride of the compound 28] | 
1670 nM | O=C(O)C1CC(CN2CCC3(CC2)CC(N[C@@H]2C[C@H]2c2ccccc2)CO3)C1 (stereo partly shown) [Hydrochloride of the compound 29] | 
2120 nM | O=C(O)C1(CN2CCC3(CC2)CC(N[C@@H]2C[C@H]2c2ccccc2)CO3)CC1 (stereo partly shown) [Hydrochloride of the compound 31] | 
48.2 nM | c1ccc([C@@H]2C[C@H]2NC2COC3(CCN(CCc4nn[nH]n4)CC3)C2)cc1 (stereo partly shown) [Hydrochloride of the compound 33] | 

Structure (SMILES) | IC50 (human LSD1) | other results
O=C(O)c1ccc(OC(=O)N2CCC3(CC2)CC(N[C@@H]2C[C@H]2c2ccccc2)CO3)cc1 (stereo partly shown) [Hydrochloride of the compound 25] | 1720 nM | 

Reference: US11649245B2, “Cyclopropylamine compound as LSD1 inhibitor and use thereof” (HELIOEAST PHARMACEUTICAL CO., LTD., priority 2018, dated 2023)
